Data published in patent US9931313B2, “Methods of treating proliferative disorders with malate or derivatives thereof” (Beth Israel Deaconess Medical Center, Inc., priority 2012, dated 2018).
Values belong to the compound of their own block, whether it stands above or below them.

Experiments:
[1] = system: normal human derived fibroblast (NHDF) and normal lung epithelial cells; test: Cell death by Annexin V in normal cells; type: cell-based
Experimental: (§1) A: Treatment with DMM induced ROS production in both normal human derived fibroblast (NHDF) and normal lung epithelial cells (Normal lung). ROS was detected by flow cytometry using indicator CM-H2DCFDA. Data are provided for the following curves (from left to right): 0, 5 mM, 10 mM, or 20 mM DMM. […] Cell death was analyzed by Annexin V reagent. Each histogram is representative of three experiments
(§2) Apoptosis was measured by staining with the Nexin reagent using a Nexin kit and counting on the Guava PCA-96 system (Guava Technologies) as per the manufacture's protocol. Briefly, cells were harvested and re-suspended in 100 μl of 1× Nexin buffer, and then mixed with 100 μl of Annexin-V-PE, and Nexin 7-AAD. The cells were allowed to incubate for 20 minutes at room temperature and analyzed in the Guava flow cytometer.

A549 cells [2] = test: Annexin-V apoptosis / cell death assay in A549 cells; type: cell-based, human; conditions: for DMM-induced cell death: DMM with NAC or GSH
Experimental: as §2

A549 cells [3] = test: Mitochondrial superoxide by MitoSOX Red in A549 cells; type: cell-based, human
Experimental: (§3) Intracellular ROS production was measured by staining with CM-H2DCFDA. CM-H2DCFDA is a cell-permeant indicator for ROS that is nonfluorescent until removal of the acetate groups by intracellular esterases and oxidation occurs within the cell. The procedure for measuring ROS was carried out as described in Trachootham et al., in Cancer Cell. 10: 241-252 (2006), with minor modifications. Briefly, A549 cells transduced with shRNA lentiviral particles or control vector were selected with puromycin for 2 weeks, and then incubated with 5 μM CM-H2DCF-DA for 3 hours, followed by flow cytometry using a FACSCalibur equipped with CellQuest Pro software. Superoxide radicals (O2^−) were measured separately using the MitoSOX™ reagent according to the manufacturer's protocol (Invitrogen). In brief, cells with or without ME2 knockdown were incubated with 5 μM MitoSOX™ reagent for 10 minutes at 37° C., then washed three times and observed under a fluorescence microscope using the Rhodamine filter and Axiovision software for capturing images (Zeiss, Germany).
We measured the ROS source using MitoSOX™ Red, a reagent that selectively targeted to the mitochondria.

[4] = system: normal human derived fibroblast (NHDF) and normal lung epithelial cells; test: ROS by CM-H2DCFDA in normal cells; type: cell-based; conditions: 5, 10, 20 mM DMM
Experimental: as §1
as §3, with “Briefly, A549 cells transduced with shRNA lentiviral particles or control vector were selected with puromycin for 2 weeks, and then incubated with 5 μM CM-H2DCF-DA for 3 hours, followed by flow cytometry using a FACSCalibur equipped with CellQuest Pro software.” left out

A549 xenograft tumors = test: A549 xenograft in nude mice treated with DMM, cisplatin or both; type: in vivo, athymic nude mice
Experimental: Approximately 5×10^6 control pLKO cells were subcutaneously implanted into female athymic nude mice. Mice were treated with DMM, cisplatin (CP), a combination of cisplatin with DMM (CP+DMM), or control (PBS), as described herein. Tumor size was measured and calculated. B: Direct injection of DMM into xenograft tumors caused shrinkage and ulceration of tumors, as compared to control with PBS.
Animal experiments were performed under federal guidelines and approved by the Institutional Animal Care and Use Committee (IACUC) of the Beth Israel Deaconess Medical Center (Approval number 0342007). A549 xenografts in nude mice were generated by following the description of Verrax et al., in Biochem. Pharmacol. 72: 671-680 (2006). Briefly, approximately 10^7 ME2 deficient or control A549 cells resuspended in 200 μl of a serum-free culture medium/Matrigel mixture (1:1) were subcutaneously injected into the right and left flanks of male nude/nu/nu athymic mice, respectively. Tumor-bearing mice were sacrificed after 6-8 weeks and tumor masses were measured or imaged before excision. Tumor lysates were prepared by homogenization of tumor tissues in RIPA lysis buffer and were resolved by SDS-PAGE and transferred onto PDVF membranes and immunoblotted with anti-ME2 antibody and normalized by β-tubulin as a loading control.

ME2-C = biological target: T1, ME2-C (Homo sapiens, UniProt P23368); test: In vitro activity of modified ME2 (ME2-C), absorbance at 340 nm; type: biochemical; conditions: 5, 15 and 45 mM DMM; 15 mM L-malate, 1 mM NAD+, 60 nM ME2-C, 37° C.
T1 construct: His tag (C); FLAG tag (cleavable) (C); made in house; host or cells: E. coli BL21(DE3)
Experimental: Modified ME2 is a recombinant ME2 protein having a C-terminus His tag and lacking the mitochondrial targeting sequence (ME2-C) was prepared, as described in Loeber et al., J. Biol. Chem. 266:3016-3021 (1991). The 200 μl assay mixture contained 30 mM of Tris-HCl (pH 7.4), 15 mM of L-malate (pH 7.4), 1 mM of NAD^+, 2 mM of MnCl2, and 60 nM of ME2-C. Different concentrations of DMM (pH 7.4) were tested, namely 5, 15 and 45 mM. The absorbance of the solution at 340 nm was monitored continuously with a Beckman Coulter DTX 880 multimode spectrophotometer at 37° C.
To further determine compounds that can be used to inhibit ME2 and/or increase intracellular malate, or a derivative thereof, an ME2 assay was established. Accordingly, a modified ME2 protein was constructed using a human ME2 expression vector and a bacterial expression system (E. coli BL21(DE3)) with a cleavable FLAG tag. Both N- and C-terminal constructs were assessed for protein production, and the mitochondrial targeting sequence was deleted in the constructs, as described in Loeber et al., J. Biol. Chem. 266:3016-3021 (1991), which is incorporated herein by reference. Kinetic experiments were performed with C-terminal tagged ME2 (ME2-C) and with an assay mixture containing 30 mM of Tris-HCl (pH 7.4), 15 mM of L-malate (pH 7.4), 1 mM of NAD+, 2 mM of MnCl2, and 60 nM of ME2-C. […]

A549 cells [5] = test: Proliferation assay of A549 cells treated with DMM; type: cell-based, human
Experimental: Control and ME2 deficient cell lines were plated in 6-well plate at a density of 1×10^5 cells/well and maintained at 37° C. in a 5% CO2 incubator. After 24, 72, 120 and 168 hours of initial plating, 0.5 ml cells were diluted into 10 ml of Hanks' buffer and counted by Coulter counter. All samples were assayed in triplicate to generate proliferation curves, as described in Benson et al., Nature 441: 451-456 (2006). For the clonogenic assay, A549 with stably expression ME2 knockdown and control shRNA cells were seeded in a 6-well plate at a density of 200 cells per well. Colonies were fixed with 10% formaldehyde for 5 min and stained with 0.5% crystal violet for 30 min and counted with NIH image software.
To test whether malate accumulation may damage mitochondrial function and further inhibit cell growth, an exogenous form of malate was delivered in vitro. Exogenous malate may mimic the phenotype-induced by ME2 knockdown. Therefore, we supplemented exogenous cell-permeable malate (Heart et al., Am. J. Physiol. 296: E1354-1362 (2009)) in A549 cell growth media and compared the phenotype with ME2 knockdown cells. DMM, being cell permeable, was used as an exogenous substitute for malate.

A549 cells [6] = test: Cellular ROS by CM-H2DCFDA flow cytometry in A549 cells; type: cell-based, human; conditions: for DMM-induced ROS production: 10 or 20 mM DMM with 20 mM NAC or 20 mM GSH
Experimental: as §3

Akt and PDK1 = test: Western blotting of Akt/PDK1 phosphorylation and differentiation marker in A549 cells; type: cell-based, human; conditions: for DMM-induced differentiation / basal Akt activity in DMM-treated A549 cells: DMM in combination with NAC or GSH; for basal Akt activity in DMM-treated A549 cells: p-AKT473
Experimental: A549 cells with and without ME2 knockdown were lysed with RIPA buffer (50 mM Tris-HCl, pH 7.4, 150 mM NaCl, 1% NP-40, 0.1% SDS and 0.5% sodium deoxycholate), and equal amount of proteins were resolved by 4%-12% Bis-Tris gels (Invitrogen), as previously described in Ren et al., Proc. Natl Acad. Sci. USA 104: 10465-10469 (2007). Briefly, the proteins were transferred to a PVDF membrane, and membranes were blocked with BLOTTO (5% nonfat dry milk and 0.1% Tween 20 in PBS), and incubated with antisera generated against ME2, phospho-AKT380, phosphor-473, AKT1/2, phosphor-ERK1/2, ERK1, vimentin, GATA-1 or β-tubulin antibodies, respectively. Membranes were washed in PBS plus 0.1% Tween 20 and probed with anti-rabbit or anti-mouse HRP-conjugated secondary antibody (both at 1:10,000 dilution), and proteins were detected using the ECL Plus chemiluminescence detection reagent (Amersham Biosciences).

A549 cells [7] = test: Survival of A549 cells in Hams/F12 medium without glucose, pyruvate and glutamine; type: cell-based, human; conditions: control and ME2 knockdown A549 cells, medium without pyruvate, glutamine
Experimental: A549 control or ME2 knockdown cells were grown in Hams/F12 based medium without glucose, pyruvate and glutamine. Different concentrations of glutamine were supplemented as indicated. The alive cells were stained with Nexin/7-ADD and analyzed by FACS. B: Exogenous supplementation of pyruvate can rescue ME2 depletion induced cell death. A549 control or ME2 knockdown cells were grown in Hams/F12 based medium without glucose, pyruvate and glutamine. Different concentrations of pyruvate were supplemented as indicated. The alive cells were stained with Nexin/7-ADD and analyzed by FACS. C and D: The effect of ME2 knockdown on de novo synthesis of PC is greater with ^13C6-Glc than with ^13C5, 1^5N2-Gln as tracer, as analyzed by FT-ICR-MS. E: Inhibition of ^13C3-citrate synthesis from ^13C6-Glc by ME2 knockdown, as determined by GC-MS. […] G and H: Effects of ME2 knockdown on the levels and fractional distribution of ^13C isotopologues of malate, as analyzed by GC-MS; rectangles depict ^13C2- (m2) and ^13C3-malate (m3) species as markers of the first turn of the Krebs cycle without and with pyruvate carboxylation input, respectively. […]

[8] = direct intratumoral injection, vs PBS

T1 sequence (P23368 19-584): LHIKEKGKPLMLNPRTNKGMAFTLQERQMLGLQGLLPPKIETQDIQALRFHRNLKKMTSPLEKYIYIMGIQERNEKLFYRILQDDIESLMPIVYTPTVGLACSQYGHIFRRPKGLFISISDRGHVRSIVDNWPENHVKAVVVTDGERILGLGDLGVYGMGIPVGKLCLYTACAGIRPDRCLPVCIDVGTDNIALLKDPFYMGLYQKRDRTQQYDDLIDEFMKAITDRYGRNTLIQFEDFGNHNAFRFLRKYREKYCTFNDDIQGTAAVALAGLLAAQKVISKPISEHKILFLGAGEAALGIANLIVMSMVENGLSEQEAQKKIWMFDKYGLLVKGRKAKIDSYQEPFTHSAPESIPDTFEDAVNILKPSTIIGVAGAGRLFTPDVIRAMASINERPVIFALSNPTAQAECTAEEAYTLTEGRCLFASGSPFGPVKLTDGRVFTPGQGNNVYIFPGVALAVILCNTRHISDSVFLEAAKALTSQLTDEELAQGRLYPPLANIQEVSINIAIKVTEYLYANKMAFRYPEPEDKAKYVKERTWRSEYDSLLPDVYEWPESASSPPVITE

activity of ME2-C (ME2-C): decreased the activity
SMILES: COC(=O)CC(O)C(=O)OC (centres unmarked) [DMM, dimethyl malate]
cell death in normal cell lines [1]: not in the normal cell lines
mode of cell death induced by DMM (annexin V assay) (A549 cells [2]; A549 cells): induced necrosis in A549 cells rather than apoptosis
cell death in A549 cancer cell (A549 cells [2]; compared with normal cell lines): selectively induced cell death
superoxide (MitoSOX Red) (A549 cells [3]; 20 mM DMM for four days): increased presence of superoxide
ROS production in normal cell lines [4]: enhanced ROS production
A549 tumor growth in vivo (A549 xenograft tumors; 0.5 g/kg of DMM): significantly inhibited
tumor size after direct injection into A549 xenograft tumors (A549 xenograft tumors; [8]): decreases in tumor size
tumor tissue appearance after direct injection into A549 xenograft tumors (A549 xenograft tumors; [8]): ulceration of the tumor tissue
proliferation of A549 cells (A549 cells [5]; 10 and 20 mM DMM, control (pLKO) and ME2 knockdown (shME2-3) A549 cells): significantly inhibited
sensitivity of ME2 knockdown cells to DMM treatment compared to control cancer cells (A549 cells [5]; shME2-3 vs pLKO A549 cells): more sensitive
time course of DMM-induced ROS production (A549 cells [6]; 3 h to 3 days): time-dependent
ROS production (CM-H2DCFDA) (A549 cells [6]; A549 cells, exogenous DMM 5, 10, 20 mM): enhanced production of ROS
E-cadherin expression (Akt and PDK1; A549 cells in vitro): increased
basal Akt and PDK1 activity (Akt and PDK1; A549 cells in vitro, p-AKT473 and p-PDK1): inhibited

SMILES: N[C@@H](CCC(=O)N[C@@H](CS)C(=O)NCC(=O)O)C(=O)O [GSH, reduced glutathione]
DMM-induced cell death (A549 cells [2]): almost completely inhibited
DMM-induced ROS production (A549 cells [6]): inhibited
DMM-induced differentiation (Akt and PDK1): reversed the DMM-induced differentiation
basal Akt activity in DMM-treated A549 cells (Akt and PDK1): rescued basal Akt activity

SMILES: CC(=O)N[C@@H](CS)C(=O)O [NAC, N-acetyl-cysteine]
DMM-induced cell death (A549 cells [2]): almost completely inhibited
cell death induced by ME2 knockdown, rescue by antioxidant (A549 cells [2]; ME2 depleted cells): failed to rescue
superoxide production in DMM-treated cells (A549 cells [3]; DMM together with 20 mM NAC): decreased levels of superoxide production
DMM-induced ROS production (A549 cells [6]): inhibited
DMM-induced differentiation (Akt and PDK1): reversed the DMM-induced differentiation
basal Akt activity in DMM-treated A549 cells (Akt and PDK1): rescued basal Akt activity

SMILES: NC(=O)CC[C@H](N)C(=O)O [glutamine]
rescue of cell survival by supplementation (A549 cells [7]): rescued control cells more than ME2 knockdown cells
